Columns and labels:
[1] = Cholecalciferol phosphate adhesive suitability / compatibility screen; format: physicochemical
Experimental: Pre-formulation studies were performed to determine the compatibility of cholecalciferol phosphate (disodium and acid forms) with a range of adhesives (Table 38) that could be used to manufacture of the patch. The compatibility of the drugs with the patch excipients was assessed through checking the clarity of the mixture.
The compatibility of the adhesive with solvents and drug was established. The maximum drug loading in the adhesive following solvent evaporation was determined by mixing the drug, adhesive and co-solvents until a clear solution is obtained at different drug:adhesive ratios by placing a drop of solution onto patch backing sheet, leaving the slide to dry for 3-4 hours and examining the formed fil on the surface of the backings for evidence of drug crystals were assessed using KKmoon digital magnifier with LED light (China). Following patch optimization, the drug-adhesive solution was cast as 10×10 cm squares using of backing (3M™ Scotchpak™ Polyester Backing Film Laminate 9730). A sufficient volume of the adhesive was applied to achieve a target coating of 8 mg/cm^2. Following complete drying of the solvents, the adhesive layer was covered by M3 Release liner (SCOTCHPAK 9755), compressed, and then cut using 34 mm circular manual die cutter (SCP Super Cutting Press).

[2] = Cholecalciferol phosphate disodium patch release; format: in vitro ADME; conditions: control solution in PG, 24 h
Experimental: The patch was produced by mixing 82.9 μL of the adhesive, 1.92 μL of PG and the 4 mg of cholecalciferol phosphate disodium (Table 39). The patch formulation was cast into an in-house rectangular tray measuring 10 by 10 cm. The mixture was left to cure for 3-4 h. The laminate was then added to the adhesive and circles of 34 mm diameter were cut using a dye cutting machine and the release of the cholecalciferol was assessed using the Franz diffusion cells fitted with a nylon membrane over 24 h. A nylon membrane (0.20 μm) was glued to the receiver chamber and no donor chamber was employed to allow the patch to be placed directly on the surface of the nylon membrane. A cholecalciferol phosphate disodium saturated PG solution was used as a comparator with the standard Franz cell set-up previously described. The receiver fluid was 80% PG 20% water for both release testing from the solution and the patch.

[3] = Solubility of cholecalciferol and cholecalciferol phosphate (disodium, acid); format: physicochemical
Experimental: Aliquots of cholecalciferol, cholecalciferol phosphate disodium, and cholecalciferol phosphate acid were added to a range of solvents including propylene glycol (PG), distilled water, methanol, ethyl acetate, ethanol, n-hexane, and the visual solubility was determined. A precise assessment of the saturation solubility was for some of the solvent systems was made using high-performance liquid chromatography (HPLC). In the HPLC solubility studies, an excess of each solute was added into 2 mL of each test solvent. The solutions were left stirring overnight at room temperature, (RT), 22° C. The saturation of the solutions was confirmed by the visual appearance of crystals and the drug suspensions were filtered through 0.2 μm cellulose acetate syringe filters, diluted with excess of mobile phase, and the solute concentration of each sample was assessed using HPLC.

[4] = Release of cholecalciferol phosphate disodium solutions through synthetic membrane; format: in vitro ADME
Experimental: Preliminary studies were conducted to determine the best synthetic membrane for the patch release using the Franz diffusion cells. Regenerated cellulose (12-14 k molecular weight cut-off Medicell International UK) was compared to nylon (0.20 μm, Whatman, UK) using a range of donor and receiver solutions. The regenerated cellulose membrane was heated to 60° C. for 30 minutes after which the double layer of polymer (it is supplied as a dialysis membrane) was separated and mounted onto the Franz cell (FIG. 3) by sealing between the two compartments using parafilm, and 12 mm magnetic stirrers were placed into the receiver compartment. The receiver compartment was filled with either 50:50 PG:mobile phase (90:10 methanol:water pH 3.2), or 80:20 PG:distilled water, or 75 mM pH 7 saline. The cell sealing was confirmed by cell inversion and monitoring solvent back diffusion. […] The temperature of the Franz diffusion was maintained at 37° C. in a water bath, to set up the membrane temperature to 32° C. […] The 1 ml receiver fluid samples were collected and analysed by HPLC methods at different time intervals. […]

[5] = Chemical stability of cholecalciferol and cholecalciferol phosphate disodium in donor, extraction and receiver fluids; format: physicochemical; conditions: for chemical stability: 37° C., 24 h
Experimental: To assess the chemical stability of the test agents in the liquids in which they were to be dissolved for the skin permeation experiments, 1 mg/mL solutions of cholecalciferol and cholecalciferol phosphate disodium in propylene glycol (PG) were prepared and incubated at 37° C. for 24 h. In addition, 100 μg/mL cholecalciferol in 50:50 PG:ethanol mixture, 100 μg/mL cholecalciferol phosphate disodium in 90:10 methanol:water mixture as well as and in 50% PG 40% Methanol: 10% water pH 3.2 (90:10) were also incubated at 37° C. for 24 hours.

Q: Which “compatibility with DURO-TAK 87-2516” value [1] does the source give for cholecalciferol phosphate disodium here?
A: compatible

Q: What about the “compatibility with DURO-TAK 87-9301” value [1] of the same substance?
A: did not show compatibility

Q: What about the “miscibility with Oppanol B12 and Oppanol N100” value [1] of the same substance?
A: did not show acceptable miscibility

Q: What about the “highest active loading without any crystallization” value ([1]; DURO-TAK 87-2516) of the same substance?
A: 0.6 mg/mL

Q: And the Solubility ([1]; DURO-TAK 87-2516 93.2 μL, 10% w/v drug, 1.4 mL methanol, 2.75 mL ethyl acetate, 2 μL PG, 150 μL water)?
A: Clear

Q: And the Solubility ([1]; DURO-TAK 87-2516 100 μL, 10% w/v drug, 0.5 mL methanol, 0.5-1.5 mL ethyl acetate, 2 μL PG, no water)?
A: Not clear

Q: And the Solubility ([1]; DURO-TAK 87-2516 180 μL, 5% drug, 1.4 mL methanol, 2.5 mL ethyl acetate, 4 μL PG, 150 μL water)?
A: Clear

Q: And the Solubility ([1]; DURO-TAK 87-2516 200 μL, 3% drug, 0.9 mL methanol, 2 mL ethyl acetate, 40 μL PG, 100 μL water)?
A: Clear

Q: And the Solubility ([1]; DURO-TAK 87-9301 suitability screen, 4 mg drug, 0.2 mL adhesive, 1-4 mL ethyl acetate, 60 μL PG)?
A: Opaque

Q: And the Solubility ([1]; DURO-TAK 87-9301 suitability screen, 4 mg drug, no adhesive, 4 mL methanol, 40 μL PG)?
A: Clear

Q: What about the “active release from PG solution, percent of applied active” value [2] of the same substance?
A: 17%

Q: What about the “active release from PG solution” value ([2]; nylon membrane) of the same substance?
A: 512±17 μg/cm^2

Q: And the Solubility ([3]; solvent PG)?
A: 2670 ± 310 µg/mL

Q: And the Solubility ([3]; solvent PG + 5% ethanol)?
A: 340 ± 610 µg/mL

Q: And the “release through regenerated cellulose membrane” value ([4]; PG donor, 50:50 PG:MP (90:10 methanol:water pH 3.2) receiver)?
A: 22.0±4.6%

Q: And the “release through regenerated cellulose membrane” value ([4]; saline donor, saline receiver)?
A: 3.0±0.7%

Q: What about the chemical stability ([5]; PG) of the same substance?
A: 86±5.7%

Q: And the “chemical stability (in words)” value ([5]; conclusions)?
A: indication of chemical instability

Q: And the chemical stability ([5]; extraction fluid 90:10 methanol:water)?
A: 98±1.6%

Q: What about the chemical stability ([5]; receiver fluid 50:50 PG:mobile phase (90:10 methanol:water pH 3.2)) of the same substance?
A: 71±2.7%

From US20260306421A1, “SYSTEMS AND METHODS FOR TRANSDERMAN PATCH DELIVERY” (VITAMAX PATCH WHOLESALER LLC, priority 2022, published 2026)
